One data set has as its system GM1 in K562 cells. Nature of the data set: Flow cytometry of cell surface GM1 in intact cells. Particulars: for IC50: Homo sapiens. It is filed as cell-based. The source says:
Since […] the first and rate-limiting step in the biosynthesis of glycosphingolipids, a flow cytometry assay that measured cell surface levels of GM 1 and GM3 was used to indirectly assess the activity of the inhibitor in intact cells.
(A flow cytometer gives signals particle by particle.)

For another data set, the target named is T1, lactase (Rattus norvegicus, UniProt Q02401).
T1 construct: The intestinal glycosidase enzymes were assayed in rat tissue homogenates; from tissue; host or cells: rat intestinal tissue homogenate
T1 sequence (Q02401 868-1928): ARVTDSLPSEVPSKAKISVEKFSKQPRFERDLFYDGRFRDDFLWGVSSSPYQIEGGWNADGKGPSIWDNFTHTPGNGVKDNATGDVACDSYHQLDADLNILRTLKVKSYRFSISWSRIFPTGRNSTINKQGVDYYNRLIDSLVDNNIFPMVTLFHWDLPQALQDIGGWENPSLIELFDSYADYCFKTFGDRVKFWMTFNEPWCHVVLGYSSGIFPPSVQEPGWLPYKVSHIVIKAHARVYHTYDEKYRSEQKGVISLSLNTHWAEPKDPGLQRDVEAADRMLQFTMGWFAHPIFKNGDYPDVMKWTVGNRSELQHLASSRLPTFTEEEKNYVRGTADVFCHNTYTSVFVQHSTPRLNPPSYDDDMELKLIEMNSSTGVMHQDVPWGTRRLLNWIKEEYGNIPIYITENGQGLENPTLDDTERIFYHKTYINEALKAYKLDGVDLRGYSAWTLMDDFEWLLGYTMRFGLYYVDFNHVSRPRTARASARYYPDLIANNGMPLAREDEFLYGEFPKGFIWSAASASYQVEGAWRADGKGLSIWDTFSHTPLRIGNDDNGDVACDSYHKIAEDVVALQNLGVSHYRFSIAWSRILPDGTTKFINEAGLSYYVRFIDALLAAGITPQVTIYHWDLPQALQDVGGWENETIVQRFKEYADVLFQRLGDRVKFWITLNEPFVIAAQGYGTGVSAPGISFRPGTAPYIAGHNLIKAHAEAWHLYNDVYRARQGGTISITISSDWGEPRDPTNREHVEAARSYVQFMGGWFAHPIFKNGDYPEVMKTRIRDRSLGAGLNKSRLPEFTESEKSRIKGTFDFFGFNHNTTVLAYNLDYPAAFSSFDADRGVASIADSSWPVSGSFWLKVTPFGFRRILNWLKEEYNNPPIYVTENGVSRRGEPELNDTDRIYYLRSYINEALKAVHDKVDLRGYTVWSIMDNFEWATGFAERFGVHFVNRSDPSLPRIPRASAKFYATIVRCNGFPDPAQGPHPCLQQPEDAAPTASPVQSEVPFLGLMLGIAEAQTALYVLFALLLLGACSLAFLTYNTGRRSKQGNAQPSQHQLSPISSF
Nature of the data set: Intestinal glycosidase assay in rat tissue homogenates. Format: biochemical. The conditions noted are these: concentrations up to 2500 μM. As to the method: (§1) The specificity of Formula (I) Hemitartrate was evaluated in a series of in vitro cell-based and cell-free assays. The intestinal glycosidase enzymes were assayed in rat tissue homogenates (see U. Andersson, et al., Biochem. Pharm. 59 (2000) 821-829, the entire teachings of which are incorporated herein by reference), and the glycogen debranching enzyme was assayed in a cell free assay as described (see U. Andersson, et al., Biochem. Pharm. 67 (2004) 697-705, the entire teachings of which are incorporated herein by reference).

The test system of another data set is maltase. The description is as above. Format: biochemical. As to the method:
as §1

Another data set deals with T2, sucrase (Rattus norvegicus, UniProt P23739).
T2 construct: The intestinal glycosidase enzymes were assayed in rat tissue homogenates; from tissue; host or cells: rat intestinal tissue homogenate
T2 sequence (P23739 whole entry): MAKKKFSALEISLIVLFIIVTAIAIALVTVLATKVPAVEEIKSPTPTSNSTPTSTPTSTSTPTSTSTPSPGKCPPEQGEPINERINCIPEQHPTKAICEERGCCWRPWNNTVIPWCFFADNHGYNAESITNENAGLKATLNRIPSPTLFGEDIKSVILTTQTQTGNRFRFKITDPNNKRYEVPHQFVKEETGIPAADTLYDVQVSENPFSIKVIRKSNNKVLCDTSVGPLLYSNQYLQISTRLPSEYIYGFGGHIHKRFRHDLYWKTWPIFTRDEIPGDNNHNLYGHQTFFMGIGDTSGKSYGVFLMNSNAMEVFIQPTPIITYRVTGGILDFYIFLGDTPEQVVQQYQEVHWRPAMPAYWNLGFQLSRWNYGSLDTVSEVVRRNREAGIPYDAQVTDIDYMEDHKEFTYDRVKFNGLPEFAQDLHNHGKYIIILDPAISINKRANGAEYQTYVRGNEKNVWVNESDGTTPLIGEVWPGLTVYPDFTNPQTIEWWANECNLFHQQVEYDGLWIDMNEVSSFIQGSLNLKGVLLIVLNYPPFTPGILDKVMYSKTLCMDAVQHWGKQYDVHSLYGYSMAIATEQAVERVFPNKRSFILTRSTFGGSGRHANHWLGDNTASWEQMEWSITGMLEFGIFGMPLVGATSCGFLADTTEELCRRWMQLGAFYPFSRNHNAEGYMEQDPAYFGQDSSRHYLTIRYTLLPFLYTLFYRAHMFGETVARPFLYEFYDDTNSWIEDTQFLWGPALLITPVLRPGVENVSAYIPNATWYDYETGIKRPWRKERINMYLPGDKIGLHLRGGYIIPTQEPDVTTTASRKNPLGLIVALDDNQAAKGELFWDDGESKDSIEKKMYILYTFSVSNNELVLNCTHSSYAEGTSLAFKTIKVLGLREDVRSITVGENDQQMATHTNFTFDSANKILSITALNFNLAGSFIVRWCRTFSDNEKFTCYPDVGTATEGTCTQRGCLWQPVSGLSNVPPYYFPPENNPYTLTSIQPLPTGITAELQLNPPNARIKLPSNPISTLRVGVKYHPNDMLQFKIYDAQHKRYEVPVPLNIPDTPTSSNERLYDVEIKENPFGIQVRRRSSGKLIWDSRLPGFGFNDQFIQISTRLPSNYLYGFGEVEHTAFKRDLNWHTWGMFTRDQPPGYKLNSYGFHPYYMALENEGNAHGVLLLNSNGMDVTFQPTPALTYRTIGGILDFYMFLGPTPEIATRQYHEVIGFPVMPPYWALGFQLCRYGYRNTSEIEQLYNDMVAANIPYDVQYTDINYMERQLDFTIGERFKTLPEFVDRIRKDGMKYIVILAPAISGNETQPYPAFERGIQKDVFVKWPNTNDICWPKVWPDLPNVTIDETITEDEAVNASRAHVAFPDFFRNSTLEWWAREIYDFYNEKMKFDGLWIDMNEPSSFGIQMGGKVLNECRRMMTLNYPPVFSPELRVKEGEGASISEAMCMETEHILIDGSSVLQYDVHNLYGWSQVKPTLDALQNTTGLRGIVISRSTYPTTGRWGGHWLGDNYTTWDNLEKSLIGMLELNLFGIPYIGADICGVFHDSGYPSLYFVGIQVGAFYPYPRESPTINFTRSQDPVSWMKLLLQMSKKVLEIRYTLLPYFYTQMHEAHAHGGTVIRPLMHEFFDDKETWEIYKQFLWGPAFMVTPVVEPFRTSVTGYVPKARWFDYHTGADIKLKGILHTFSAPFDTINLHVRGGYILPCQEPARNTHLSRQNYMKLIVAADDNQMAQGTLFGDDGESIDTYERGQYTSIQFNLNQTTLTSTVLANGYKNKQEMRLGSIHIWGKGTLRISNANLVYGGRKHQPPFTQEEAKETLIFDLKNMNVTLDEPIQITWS
The description is as above. Format: biochemical. On the procedure: as §1

Data set [1] can be described thus: Approximate solubility in organic solvents from solvent addition. The conditions noted are these: organic solvent or mixture, thermodynamic from solid, room temperature (20-25° C.). It is filed as physicochemical. As to the method:
A weighed sample (usually 20 mg) was treated with aliquots of the test solvent. Aliquots were typically 100-200 μL. Between solvent additions, the mixture was shaken or sonicated. When the solids dissolved, as judged by visual inspection, the solution was allowed to evaporate under ambient conditions in an open vial covered with aluminum foil perforated with pinholes. Solubilities were estimated from these experiments based on the total solvent added to obtain a clear solution.

A further data set in a line: Aqueous solubility. It is filed as physicochemical. Particulars: in water.

Results on one compound are retold here after patent publication US10888547B2, “Amorphous and a crystalline form of genz 112638 hemitartrate as inhibitor of glucosylceramide synthase” (Genzyme Corporation, priority 2009, dated 2021).

Like-named read-outs stand apart in the source and are kept apart here.

Turning to `CCCCCCCC(=O)N[C@H](CN1CCCC1)[C@H](O)c1ccc2c(c1)OCCO2` [Formula (I) Hemitartrate], the IC50 (as a rule, the concentration that inhibits the measured activity by half) in the data set on GM1 in K562 cells (K562 cells, 72 h incubation, printed range 14-34 nM, read-out: mean IC50 for inhibiting the cell surface presentation of GM1) is 24 nM; in the data set on GM1 in K562 cells (Table 8, GM1 in K562 cells, read-out: Substrate inhibition potency (in vitro IC50)) it was around 24 nM. For the same compound, the cellular toxicity entry with GM1 in K562 cells (K562 cells, up to the highest dose (0.6-1000 nM), 72 h) is “No overt cellular toxicity”. Besides, on lactase, the inhibition of lactase entry is “No detectable inhibition”. Also, the inhibition of maltase result with maltase (concentrations up to 2500 μM) is on record as “No detectable inhibition”. The Ki (as a rule, the dissociation constant of the complex between target and ligand, obtained from inhibition or displacement) at maltase (read-out: Enzyme specificities, Ki: Maltase inhibition) is above 10000 nM; on sucrase (read-out: Enzyme specificities, Ki: Sucrase inhibition), above 10000 nM. The inhibition of sucrase entry against sucrase (concentrations up to 2500 μM) was “No detectable inhibition”. The solubility (as a rule, the dissolved amount per volume that the medium holds) was below 5000 µg/mL in data set [1] (Acetone); below 5000 µg/mL in data set [1] (Acetonitrile); 100000 µg/mL in data set [1] (Dichloromethane); 29000 µg/mL in data set [1] (Ethanol); below 5000 µg/mL in data set [1] (Ethyl Acetate); below 5000 µg/mL in data set [1] (Isopropyl alcohol). The solubility in data set [1] (Methanol) is above 200000 µg/mL; in data set [1] (Methyl t-butyl ether (TBME)), below 5000 µg/mL; in data set [1] (Tetrahydrofuran (THF)), below 5000 µg/mL; in data set [1] (Toluene), below 5000 µg/mL; in data set [1] (p-Dioxane), below 5000 µg/mL. Moreover, the Aqueous solubility (usually the dissolved amount per volume that the medium holds) in “Aqueous solubility” is above 216000 µg/mL; in the data set “Aqueous solubility” (listed as Formula I Hemitartrate) it was “over 300 mg/mL”.
